Assay: xn = mol fraction of the nth substance listed
Details: Liquid, Pycnometric method

CCCCCl [1-chlorobutane] + O=C=O
Details	mass density [kg/m3]
324 K, 13450 kPa, x1 = 0.0483	758
324 K, 13950 kPa, x1 = 0.0483	768
324 K, 14450 kPa, x1 = 0.0483	778
324 K, 15020 kPa, x1 = 0.0483	788
327.6 K, 8120 kPa, x1 = 0.0243	244
327.6 K, 8180 kPa, x1 = 0.0243	249
327.6 K, 8250 kPa, x1 = 0.0243	253
327.6 K, 8320 kPa, x1 = 0.0243	258
327.6 K, 8390 kPa, x1 = 0.0243	263
327.6 K, 8460 kPa, x1 = 0.0243	268
327.6 K, 8480 kPa, x1 = 0.1488	758
327.6 K, 8520 kPa, x1 = 0.0243	274
327.6 K, 8590 kPa, x1 = 0.0243	279
327.6 K, 8670 kPa, x1 = 0.0243	285
327.6 K, 8710 kPa, x1 = 0.1488	762
327.6 K, 8750 kPa, x1 = 0.0243	291
327.6 K, 8820 kPa, x1 = 0.0243	298
327.6 K, 8880 kPa, x1 = 0.0243	304
327.6 K, 8920 kPa, x1 = 0.0981	692
327.6 K, 8920 kPa, x1 = 0.1488	766
327.6 K, 8950 kPa, x1 = 0.0243	311
327.6 K, 9040 kPa, x1 = 0.0243	318
327.6 K, 9050 kPa, x1 = 0.0981	698
327.6 K, 9110 kPa, x1 = 0.0243	326
327.6 K, 9140 kPa, x1 = 0.1488	770
327.6 K, 9180 kPa, x1 = 0.0243	334
327.6 K, 9200 kPa, x1 = 0.0981	704
327.6 K, 9270 kPa, x1 = 0.0243	343
327.6 K, 9350 kPa, x1 = 0.0243	352
327.6 K, 9360 kPa, x1 = 0.0981	711
327.6 K, 9370 kPa, x1 = 0.1488	774
327.6 K, 9410 kPa, x1 = 0.0243	359
327.6 K, 9410 kPa, x1 = 0.0483	469
327.6 K, 9430 kPa, x1 = 0.0483	473
327.6 K, 9460 kPa, x1 = 0.0243	364
327.6 K, 9470 kPa, x1 = 0.0483	480
327.6 K, 9520 kPa, x1 = 0.0483	487
327.6 K, 9530 kPa, x1 = 0.0981	718
327.6 K, 9570 kPa, x1 = 0.0483	494
327.6 K, 9600 kPa, x1 = 0.1488	778
327.6 K, 9620 kPa, x1 = 0.0483	502
327.6 K, 9670 kPa, x1 = 0.0483	510
327.6 K, 9730 kPa, x1 = 0.0483	518
327.6 K, 9730 kPa, x1 = 0.0981	725
327.6 K, 9790 kPa, x1 = 0.0483	526
327.6 K, 9850 kPa, x1 = 0.1488	781
327.6 K, 9860 kPa, x1 = 0.0483	535
327.6 K, 9930 kPa, x1 = 0.0483	544
327.6 K, 9940 kPa, x1 = 0.0981	731
327.6 K, 10010 kPa, x1 = 0.0483	553
327.6 K, 10090 kPa, x1 = 0.0483	562
327.6 K, 10110 kPa, x1 = 0.1488	785
327.6 K, 10190 kPa, x1 = 0.0483	572
327.6 K, 10200 kPa, x1 = 0.0981	739
327.6 K, 10290 kPa, x1 = 0.0483	582
327.6 K, 10410 kPa, x1 = 0.0483	593
327.6 K, 10410 kPa, x1 = 0.1488	790
327.6 K, 10450 kPa, x1 = 0.0981	746
327.6 K, 10540 kPa, x1 = 0.0483	604
327.6 K, 10690 kPa, x1 = 0.0483	615
327.6 K, 10720 kPa, x1 = 0.1488	794
327.6 K, 10770 kPa, x1 = 0.0981	754
327.6 K, 10810 kPa, x1 = 0.0483	623
327.6 K, 10910 kPa, x1 = 0.0483	629
327.6 K, 11000 kPa, x1 = 0.0483	635
327.6 K, 11050 kPa, x1 = 0.1488	798
327.6 K, 11060 kPa, x1 = 0.0483	639
327.6 K, 11110 kPa, x1 = 0.0981	761
327.6 K, 11140 kPa, x1 = 0.0483	644
327.6 K, 11220 kPa, x1 = 0.0483	648
327.6 K, 11380 kPa, x1 = 0.1488	802
327.6 K, 11460 kPa, x1 = 0.0981	769
327.6 K, 11770 kPa, x1 = 0.1488	806
327.6 K, 11880 kPa, x1 = 0.0981	777
327.6 K, 12150 kPa, x1 = 0.1488	811
327.6 K, 12330 kPa, x1 = 0.0981	785
327.6 K, 12530 kPa, x1 = 0.1488	815
327.6 K, 12830 kPa, x1 = 0.0981	792
327.6 K, 12950 kPa, x1 = 0.1488	819
327.6 K, 13400 kPa, x1 = 0.1488	823
327.6 K, 13410 kPa, x1 = 0.0981	802
327.6 K, 13890 kPa, x1 = 0.1488	828
327.6 K, 14220 kPa, x1 = 0.0981	813
327.6 K, 14350 kPa, x1 = 0.1488	832
327.6 K, 14900 kPa, x1 = 0.1488	837

Source: the NIST ThermoML archive (doi:10.1021/je900387e)
